Measurements taken from patent US10369123B2, “Perk activator for the treatment of neurodegenerative diseases” (DEUTSCHES ZENTRUM FÜR NEURODEGENERATIVE ERKRANKUNGEN E.V. …, priority 2014, dated 2019).
Entries after “also recorded” stand apart in the source; their conditions may differ.

System: P301S tau transgenic mice
Assay: Rotarod test
Format: in vivo, mouse
Details: 2 mg/kg i.p. once daily for 6 weeks, 23 weeks of age, vs saline
Experimental: All animal work was conducted either on CR57BL/6 mice, obtained from Charles River Laboratories, Wilmington, Mass., USA, or on homozygous transgenic mice overexpressing human tau with the P301S mutation on a C57BL/6 background, originally developed by Michel Goedert (Xu et al. 2014), obtained by own breeding. Animals were kept at 23±1° C. under standard 12 h light-dark cycle with free access to food and water. They were handled according to the EU Council Directive 2010/63/EU, the Guide for the Care and Use of Laboratory Animals (National Research Council 2011) and the guidelines of the local institutional committee. The experiments were authorized by the local authority “Regierung von Oberbayern” under application number 55.2-1-54-2532-165-13.
5 mg of the PA compound CCT020312 (EMD Millipore, Billerica, Mass., USA) was first dissolved in 100 μl sterile DMSO (AppliChem, Darmstadt, Germany) and then diluted in sterile saline (B. Braun Medical, Melsungen, Germany) to achieve a stock solution of […].
For the efficacy trial in the late disease stage (Xu et al. 2014), P301S mice and wild type littermates received once daily i.p. injections of 2 mg/kg CCT020312 or saline from 17 to 22 weeks of age (n=12 for CCT020312 treated P301S mice, n=9 for other groups); they were analyzed with the Rotarod test in the 23rd week of age. […]

In the case of CCN(CC)CCC(=O)N1N=C(c2c(-c3ccccc3)c3cc(Br)ccc3[nH]c2=O)CC1c1ccc(Br)cc1 (stereo not shown) [CCT020312, 6-bromo-3-[5-(4-bromo-phenyl)-1-(3-diethylamino-propionyl)-4,5-dihydro-1H-pyrazol-3-yl]-4-phenyl-1H-quinolin-2-one], the “Rotarod performance (latency to fall)” value is reported as “significantly improved; also recorded: increased performance”.
